Where two headings read alike, the source gives them in different places.
Assays:
[1] = system: tobacco suckers (axillary buds), Var. Glurk; experiment: Tobacco sucker control, spray to run-off on topped plants, Var. Glurk; type: in vivo, Nicotiana tabacum; conditions: for inhibition at 200 µg/mL / inhibition at 400 µg/mL / inhibition at 800 µg/mL / inhibition at 1600 µg/mL: Nicotiana tabacum; for Mean # of Nodes with Secondary Suckers / Mean Sucker Length (cm): Table 3
Method: In this example, the title compound of Example 1 (i.e., 2-[1-(3-trans-chloroallyloxyamino)ethylidene]-5-(2-ethylthiopropyl)cyclohexane-1,3-dione was tested side-by-side with 2-[1-(3-trans-chloroallyloxyamino)butylidene]-5-(2-ethylthio-propyl)-cyclohexane-1,3-dione for their ability to control (retard or prevent) lateral axillary buds in tobacco plants.
(§1) Twenty-four hours before treatment, the tobacco plants are "topped", removing the top 15 cm of the plant. Any plants which are tending to lean or bend in the pot were staked, and all pots labeled. Three to five replicates were used per treatment. A 5% wt. stock solution of each test compound dissolved in acetone containing a small amount of non-ionic emulsifier was prepared. The stock solution was appropriately diluted with deionized water containing 0.625 g of emulsifier per liter of water, to the desired spray solution concentration.
(§2) Plants were sprayed to point of run-off with a pressure atomizer, making sure that the stem, leaf axils, and leaves were all wet thoroughly with the solution. 30 to 35 ml of solution were used per plant. This was checked by recording volume of solution in sprayer reservoir before and after treatment. After spraying, the plants were incubated for 18 to 23 days in a greenhouse maintained at 70°-80° F. using standing water capilliary irrigation. The plants were uniformly fertilized once per week with a standard house plant fertilizer. After the incubation period, the plants were evaluated at various times for sucker control. […] The growth of secondary suckers (buds at lower nodes) when present, were also measured.
(§3) In some instances, comparisons were also made on the basis of sucker length.
(§4) The results are reported as an average of the replicates used in each test.
(§5) In this example, the title compound of Example 1 was tested side-by-side with maleic hydrazide ("C-2") with respect to axillary bud control in two varities of tobacco plants. These tests were conducted following the same general procedure as described in Example 3 hereinabove using the dosage concentrations given in the tables hereinbelow. […]

[2] = system: tobacco suckers (axillary buds), Var. 12 × L8; experiment: whole plant or invertebrate; type: in vivo, Nicotiana tabacum; conditions: for inhibition at 200 µg/mL / inhibition at 400 µg/mL / inhibition at 800 µg/mL: Nicotiana tabacum, read-out: Percent Bud Inhibition Top Two Nodes; for Mean # of Nodes with Secondary Suckers / Mean Sucker Length (cm): Table 3
Method: as §1, §2, §3, §4, §5

[3] = system: tobacco suckers (axillary buds); experiment: Tobacco sucker control, soil drench treatment; type: in vivo; conditions: for inhibition at 400 µg/mL: Nicotiana tabacum, read-out: Percent Bud Inhibition Top Three Nodes
Method: as §1
(§6) Plants were sprayed to point of run-off with a pressure atomizer, making sure that the stem, leaf axils, and leaves were all wet thoroughly with the solution. 30 to 35 ml of solution were used per plant. This was checked by recording volume of solution in sprayer reservoir before and after treatment. After spraying, the plants were incubated for 18 to 23 days in a greenhouse maintained at 70°-80° F. using standing water capilliary irrigation. The plants were uniformly fertilized once per week with a standard house plant fertilizer. After the incubation period, the plants were evaluated at various times for sucker control. To make this evaluation, the axillary buds at the top three nodes (primary suckers) of each plant were compared to those of the check, and a visual estimation of percent inhibition was made wherein 0=no inhibition of axillary buds as compared with check and 100=no axillary buds at top three nodes. The growth of secondary suckers (buds at lower nodes) when present, were also measured.
(§7) In this example, the title compound of Example 1 was tested side-by-side with maleic hydrazide for tobacco sucker control (inhibition), when applied as a soil drench and also when applied only to the leaves of the plant. The same general procedure as described in Example 3 was used with the exception that the test compound was applied only to the expanded leaves for foliage treatment (foliar paint) and the compound was drenched only on the soil in the pot for soil drench treatment. The average results of these tests are given in the following table, wherein 0=no inhibition and 100=complete inhibition, i.e., no axillary buds.

[4] = system: tobacco suckers (axillary buds); experiment: Tobacco sucker control, foliar paint (expanded leaves only); type: in vivo; conditions: for inhibition at 400 µg/mL: Nicotiana tabacum, read-out: Percent Bud Inhibition Top Three Nodes; for Sucker control when applied only to the leaves (systemic action), in words: applied only to the leaves of the tobacco plant
Method: as §1, §6, §7

[5] = 504 h, Table I, 400 mg/l spray, three weeks after treatment, read-out: Percent Bud Inhibition
[6] = 504 h, Table I, 800 mg/l spray, three weeks after treatment, read-out: Percent Bud Inhibition
[7] = 504 h, Table I, 1600 mg/l spray, three weeks after treatment, read-out: Percent Bud Inhibition
[8] = 1008 h, Table I, 400 mg/l spray, six weeks after treatment, read-out: Percent Bud Inhibition Top two Nodes
[9] = 1008 h, Table I, 800 mg/l spray, six weeks after treatment, read-out: Percent Bud Inhibition Top two Nodes
[10] = 1008 h, Table I, 1600 mg/l spray, six weeks after treatment, read-out: Percent Bud Inhibition Top two Nodes
[11] = 200 mg/l spray, six weeks after treatment
[12] = 400 mg/l spray, six weeks after treatment
[13] = 800 mg/l spray, six weeks after treatment
[14] = Table I, 400 mg/l spray, six weeks after treatment
[15] = Table I, 400 mg/l spray, three weeks after treatment
[16] = Table I, 800 mg/l spray, six weeks after treatment
[17] = Table I, 800 mg/l spray, three weeks after treatment
[18] = Table I, 1600 mg/l spray, six weeks after treatment
[19] = Table I, 1600 mg/l spray, three weeks after treatment
[20] = 504 h, read-out: Percent Bud Inhibition Top Two Nodes
[21] = 1008 h, read-out: Percent Bud Inhibition Top Two Nodes
[22] = Soil Drench, 400 mg/l, six weeks after treatment

## CCSC(C)CC1CC(=O)C(=C(C)NOC/C=C/Cl)C(=O)C1 (stereo not drawn) [Compound 1, Trans-2-[1-(3-chloroallyloxyamino)-ethylidene]-5-(2-ethylthiopropyl)-cyclohexane-1,3-dione]
[1]; 504 h, Table 2, 200 mg/l spray, three weeks after treatment, read-out: Percent Bud Inhibition Top Two Nodes
  inhibition at 200 µg/mL: 100%
[1]; 504 h, Table 2, 400 mg/l spray, three weeks after treatment, read-out: Percent Bud Inhibition Top Two Nodes
  inhibition at 400 µg/mL: 100%
[1]; 504 h, Table 2, 800 mg/l spray, three weeks after treatment, read-out: Percent Bud Inhibition Top Two Nodes
  inhibition at 800 µg/mL: 100%
[1]; [5]
  inhibition at 400 µg/mL: 100%
[1]; [6]
  inhibition at 800 µg/mL: 100%
[1]; [7]
  inhibition at 1600 µg/mL: 100%
[1]; 1008 h, Table 2, 200 mg/l spray, six weeks after treatment, read-out: Percent Bud Inhibition Top Two Nodes
  inhibition at 200 µg/mL: 100%
[1]; 1008 h, Table 2, 400 mg/l spray, six weeks after treatment, read-out: Percent Bud Inhibition Top Two Nodes
  inhibition at 400 µg/mL: 100%
[1]; 1008 h, Table 2, 800 mg/l spray, six weeks after treatment, read-out: Percent Bud Inhibition Top Two Nodes
  inhibition at 800 µg/mL: 100%
[1]; [8]
  inhibition at 400 µg/mL: 100%
[1]; [9]
  inhibition at 800 µg/mL: 100%
[1]; [10]
  inhibition at 1600 µg/mL: 100%
[1]; [11]
  Mean # of Nodes with Secondary Suckers: 2.5
  Mean Sucker Length (cm): 30.8 cm
[1]; [12]
  Mean # of Nodes with Secondary Suckers: 1.5
  Mean Sucker Length (cm): 9.6 cm
[1]; [13]
  Mean # of Nodes with Secondary Suckers: 0.5
  Mean Sucker Length (cm): 10.0 cm
[1]; [14]
  Number of Secondary Suckers (axillary buds at lower nodes): 2.3
  Total Sucker Length: 24 cm
[1]; [15]
  Number of Usable Leaves: 6.7
[1]; [16]
  Number of Secondary Suckers (axillary buds at lower nodes): 1.3
  Total Sucker Length: 7 cm
[1]; [17]
  Number of Usable Leaves: 6.7
[1]; [18]
  Number of Secondary Suckers (axillary buds at lower nodes): 0
  Total Sucker Length: 0 cm
[1]; [19]
  Number of Usable Leaves: 6.3
[2]; 504 h, Table 2, 200 mg/l spray, three weeks after treatment
  inhibition at 200 µg/mL: 95%
[2]; 504 h, Table 2, 400 mg/l spray, three weeks after treatment
  inhibition at 400 µg/mL: 93%
[2]; 504 h, Table 2, 800 mg/l spray, three weeks after treatment
  inhibition at 800 µg/mL: 95%
[2]; 1008 h, Table 2, 200 mg/l spray, six weeks after treatment
  inhibition at 200 µg/mL: 86.3%
[2]; 1008 h, Table 2, 400 mg/l spray, six weeks after treatment
  inhibition at 400 µg/mL: 96.9%
[2]; 1008 h, Table 2, 800 mg/l spray, six weeks after treatment
  inhibition at 800 µg/mL: 96.8%
[2]; [11]
  Mean # of Nodes with Secondary Suckers: 4.0
  Mean Sucker Length (cm): 24.0 cm
[2]; [12]
  Mean # of Nodes with Secondary Suckers: 2.6
  Mean Sucker Length (cm): 45.3 cm
[2]; [13]
  Mean # of Nodes with Secondary Suckers: 2.3
  Mean Sucker Length (cm): 17.4 cm
[3]; 504 h, Soil Drench (30 ml/pot), 400 mg/l, three weeks after treatment
  inhibition at 400 µg/mL: 100%
[3]; 1008 h, Soil Drench (30 ml/pot), 400 mg/l, six weeks after treatment
  inhibition at 400 µg/mL: 100%
[3]
  Sucker control when applied as a soil drench (systemic action), in words: highly effective
[4]; Foliar Paint, 400 mg/l, six weeks after treatment
  Observation on suckers at basal nodes (footnote a): some suckers appearing at basal nodes
[4]; 504 h, Foliar Paint (Leaves Only), 400 mg/l, three weeks after treatment
  inhibition at 400 µg/mL: 98%
[4]; 1008 h, Foliar Paint (Leaves Only), 400 mg/l, six weeks after treatment
  inhibition at 400 µg/mL: 99%
[4]
  Sucker control when applied only to the leaves (systemic action), in words: highly effective

## CCCC(NOC/C=C/Cl)=C1C(=O)CC(CC(C)SCC)CC1=O (stereo not drawn) [Compound C-1, 2-[1-(3-trans-chloroallyloxyamino)butylidene]-5-(2-ethylthio-propyl)-cyclohexane-1,3-dione]
[1]; [5]
  inhibition at 400 µg/mL: 0%
[1]; [6]
  inhibition at 800 µg/mL: 0%
[1]; [7]
  inhibition at 1600 µg/mL: 7%
[1]; [8]
  inhibition at 400 µg/mL: 0%
[1]; [9]
  inhibition at 800 µg/mL: 0%
[1]; [10]
  inhibition at 1600 µg/mL: 0%
[1]; [14]
  Number of Secondary Suckers (axillary buds at lower nodes): 0
  Total Sucker Length: 0 cm
[1]; [15]
  Number of Usable Leaves: 7.3
[1]; [16]
  Number of Secondary Suckers (axillary buds at lower nodes): 0
  Total Sucker Length: 0 cm
[1]; [17]
  Number of Usable Leaves: 7.7
[1]; [18]
  Number of Secondary Suckers (axillary buds at lower nodes): 0
  Total Sucker Length: 0 cm
[1]; [19]
  Number of Usable Leaves: 6.0

## O=c1ccc(=O)[nH][nH]1 [Compound C-2, maleic hydrazide]
[1]; [20]
  inhibition at 200 µg/mL: 10%
  inhibition at 400 µg/mL: 88%
  inhibition at 800 µg/mL: 93%
[1]; [21]
  inhibition at 200 µg/mL: 31.1%
  inhibition at 400 µg/mL: 100%
  inhibition at 800 µg/mL: 100%
[1]; [11]
  Mean # of Nodes with Secondary Suckers: 0
  Mean Sucker Length (cm): 0 cm
[1]; [12]
  Mean # of Nodes with Secondary Suckers: 1.5
  Mean Sucker Length (cm): 51.0 cm
[1]; [13]
  Mean # of Nodes with Secondary Suckers: 2.5
  Mean Sucker Length (cm): 31.0 cm
[2]; 504 h
  inhibition at 200 µg/mL: 0%
  inhibition at 400 µg/mL: 23%
  inhibition at 800 µg/mL: 95%
[2]; 1008 h
  inhibition at 200 µg/mL: 12.7%
  inhibition at 400 µg/mL: 54.1%
  inhibition at 800 µg/mL: 100%
[2]; [11]
  Mean # of Nodes with Secondary Suckers: 0.3
  Mean Sucker Length (cm): 3.0 cm
[2]; [12]
  Mean # of Nodes with Secondary Suckers: 1.3
  Mean Sucker Length (cm): 76.8 cm
[2]; [13]
  Mean # of Nodes with Secondary Suckers: 5.3
  Mean Sucker Length (cm): 25.8 cm
[3]; soil, 504 h
  inhibition at 400 µg/mL: 79%
[3]; soil, 1008 h
  inhibition at 400 µg/mL: 84%
[3]; [22]
  Observation on new growth (footnote b): new growth deformedstrap shaped leaves
  Observation on suckers at basal nodes (footnote a): some suckers appearing at basal nodes
[3]
  Sucker control when applied as a soil drench (systemic action), in words: operates sytemically
[4]; foliar, 504 h
  inhibition at 400 µg/mL: 15%
[4]; foliar, 1008 h
  inhibition at 400 µg/mL: 0%
[4]
  Sucker control when applied only to the leaves (systemic action), in words: does not translocate effectively

## CCC(C)Nc1c([N+](=O)[O-])cc(C(C)(C)C)cc1[N+](=O)[O-] (stereo not shown) [Compound C-3, 4-(1,1-dimethylethyl)-N--(1-methyl-propyl)-2,6-dinitrobenzenamine]
[3]; soil, 1008 h
  inhibition at 400 µg/mL: 27%
[3]
  Sucker control when applied as a soil drench (systemic action), in words: ineffective
[4]; foliar, 1008 h
  inhibition at 400 µg/mL: 3%
[4]
  Sucker control when applied only to the leaves (systemic action), in words: ineffective
